This note sets out measurements from patent US10501466B2, “WDR5 inhibitors and modulators” (Vanderbilt University, priority 2017, dated 2019).

One test deals with WDR5 (Homo sapiens (Human), UniProt P61964). Particulars: FPA and TR-FRET binding affinity, WDR5 WIN-site.
Test [1] relates to MV4,11 human leukemia cells. The test can be described thus: cells. The settings on record: MV4-11, 168 h. How it is done:
Anti-Proliferative Activity Using MLL-Harboring and Non-MLL Cell Lines.
Viability assays are performed by dispensing 5,000 cells into each well of an opaque 96-well plate and adding compounds at the indicated concentrations in a final volume of 100 μL and a final concentration of DMSO of 0.1% for all samples. After a set incubation period, either a 3 day or 7 day protocol, the viability of cells in each well is assessed using the CellTiter-Glo assay (Promega), read on a GloMax 96 Microplane Luminometer (Promega). Serial dilutions of each cell type are included in all assays to generate standard curves and determine assay measurements are taken within the dynamic range of the instrument. GI50 values are calculated based on three biological replicates, each with three technical replicates. Data are expressed as mean plus/minus S.E.M.

At WDR5, `COc1cccc(C(=O)N(CC2CC2)C2CCc3ccc(-c4cn5c(n4)CCC5)cc32)c1` (stereo not drawn) [Example B1, N-(cyclopropylmethyl)-N-(6-(6,7-dihydro-5H-pyrrolo[1,2-a]imidazol-2-yl)-2,3-dihydro-1H-inden-1-yl)-3-methoxybenzamide] displayed a Ki of 0.693 µM. Same read-out and setting: then `Cc1ccc(C(=O)NC2CCc3ccc(-c4cn5c(n4)CCC5)cc32)cc1C(F)(F)F` (stereo not drawn) [Example B2, N-(6-(6,7-dihydro-5H-pyrrolo[1,2-a]imidazol-2-yl)-2,3-dihydro-1H-inden-1-yl)-4-methyl-3-(trifluoromethyl)benzamide], with 1.38 µM. Still for that read-out and setting: to `CCOc1cccc(C(=O)NC2CCc3ccc(-c4cn5c(n4)CCC5)cc32)c1` (stereo not drawn) [Example B4, N-(6-(6,7-dihydro-5H-pyrrolo[1,2-a]imidazol-2-yl)-2,3-dihydro-1H-inden-1-yl)-3-ethoxybenzamide] belongs 0.0191 µM.

In turn, `COc1cc(C)cc(C(=O)NC2CCc3ccc(-c4cn5c(n4)CCC5)cc32)c1` (stereo not drawn) [Example B5, N-(6-(6,7-dihydro-5H-pyrrolo[1,2-a]imidazol-2-yl)-2,3-dihydro-1H-inden-1-yl)-3-methoxy-5-methylbenzamide] had a Ki on WDR5 of 0.027 µM. Same read-out and setting: then `CC(=O)N1CCCC(C(=O)NC2CCc3ccc(-c4cn5c(n4)CCC5)cc32)C1` (stereo not drawn) [Example B7, 1-acetyl-N-(6-(6,7-dihydro-5H-pyrrolo[1,2-a]imidazol-2-yl)-2,3-dihydro-1H-inden-1-yl)piperidine-3-carboxamide], with 0.033 µM; and `CCC(=O)N1CCCC(C(=O)NC2CCc3ccc(-c4cn5c(n4)CCC5)cc32)C1` (stereo not drawn) [Example B8, N-(6-(6,7-dihydro-5H-pyrrolo[1,2-a]imidazol-2-yl)-2,3-dihydro-1H-inden-1-yl)-1-propionylpiperidine-3-carboxamide], with 0.021 µM; and `O=C(NC1CCc2ccc(-c3cn4c(n3)CCC4)cc21)C1CCCN(C(=O)CC(F)(F)F)C1` (stereo not drawn) [Example B9, N-(6-(6,7-dihydro-5H-pyrrolo[1,2-a]imidazol-2-yl)-2,3-dihydro-1H-inden-1-yl)-1-(3,3,3-trifluoropropanoyl)piperidine-3-carboxamide], with 0.09 µM. The same measure, in the same setting: to `CC(C)C(=O)N1CCCC(C(=O)NC2CCc3ccc(-c4cn5c(n4)CCC5)cc32)C1` (stereo not drawn) [Example B10, N-(6-(6,7-dihydro-5H-pyrrolo[1,2-a]imidazol-2-yl)-2,3-dihydro-1H-inden-1-yl)-1-isobutyrylpiperidine-3-carboxamide] belongs 0.0709 µM. `O=C(Cc1ccc(Cl)c(Cl)c1)N[C@@H]1CCc2ccc(-c3cn4c(n3)CCC4)cc21` [Example B11, (R)-2-(3,4-dichlorophenyl)-N-(6-(6,7-dihydro-5H-pyrrolo[1,2-a]imidazol-2-yl)-2,3-dihydro-1H-inden-1-yl)acetamide] returned a GI50 in test [1] of 8.89 µM. On the same count and under the same terms, then `COc1cc(C(=O)N[C@@H]2CCc3ccc(-c4cn5c(n4)CCC5)cc32)ccc1C` [Example B12, (R)—N-(6-(6,7-dihydro-5H-pyrrolo[1,2-a]imidazol-2-yl)-2,3-dihydro-1H-inden-1-yl)-3-methoxy-4-methylbenzamide], with 17.2 µM. In the case of `CC(=O)N1CCCC(C(=O)N[C@@H]2CCc3ccc(-c4cn5c(n4)CCC5)cc32)C1` (stereo partly drawn) [Example B13, 1-acetyl-N—((R)-6-(6,7-dihydro-5H-pyrrolo[1,2-a]imidazol-2-yl)-2,3-dihydro-1H-inden-1-yl)piperidine-3-carboxamide], the Ki on WDR5 came to 0.0174 µM.

As to `COc1cc(C(=O)N[C@@H]2CCCc3ccc(-c4cn5c(n4)CCC5)cc32)ccc1C` [Example B14, (R)—N-(7-(6,7-dihydro-5H-pyrrolo[1,2-a]imidazol-2-yl)-1,2,3,4-tetrahydronaphthalen-1-yl)-3-methoxy-4-methylbenzamide], in test [1], the GI50 was 22.3 µM. The compound `O=C(Cc1ccc(Cl)c(F)c1)N[C@@H]1CCc2ccc(-c3cn4c(n3)CCC4)cc21` [Example B15, (R)-2-(4-chloro-3-fluorophenyl)-N-(6-(6,7-dihydro-5H-pyrrolo[1,2-a]imidazol-2-yl)-2,3-dihydro-1H-inden-1-yl)acetamide] showed a Ki on WDR5 of 0.00237 µM. Same read-out and setting: then `CCC(=O)N1CCCC(C(=O)N[C@@H]2CCc3ccc(-c4cn5c(n4)CCC5)cc32)C1` (stereo partly drawn) [Example B16, N—((R)-6-(6,7-dihydro-5H-pyrrolo[1,2-a]imidazol-2-yl)-2,3-dihydro-1H-inden-1-yl)-1-propionylpiperidine-3-carboxamide], with 0.00716 µM; and `CC(=O)N1CCCC(C(=O)N[C@@H]2CCCc3ccc(-c4cn5c(n4)CCC5)cc32)C1` (stereo partly drawn) [Example B17, 1-acetyl-N—((R)-7-(6,7-dihydro-5H-pyrrolo[1,2-a]imidazol-2-yl)-1,2,3,4-tetrahydronaphthalen-1-yl)piperidine-3-carboxamide], with 0.0362 µM. On the same count and under the same terms, to `CCC(=O)N1CCCC(C(=O)N[C@@H]2CCCc3ccc(-c4cn5c(n4)CCC5)cc32)C1` (stereo partly drawn) [Example B18, N—((R)-7-(6,7-dihydro-5H-pyrrolo[1,2-a]imidazol-2-yl)-1,2,3,4-tetrahydronaphthalen-1-yl)-1-propionylpiperidine-3-carboxamide] belongs 0.0143 µM; to `COc1ccc(C(=O)N[C@@H]2CCc3ccc(-c4cn5c(n4)CCC5)cc32)cn1` [Example B19, (R)—N-(6-(6,7-dihydro-5H-pyrrolo[1,2-a]imidazol-2-yl)-2,3-dihydro-1H-inden-1-yl)-6-methoxynicotinamide], 0.172 µM; to `O=C(N[C@@H]1CCc2ccc(-c3cn4c(n3)CCC4)cc21)c1ccnc(Cl)c1` [Example B20, (R)-2-chloro-N-(6-(6,7-dihydro-5H-pyrrolo[1,2-a]imidazol-2-yl)-2,3-dihydro-1H-inden-1-yl)isonicotinamide], 0.0956 µM.

In the case of `Cc1cnc(Cl)c(C(=O)N[C@@H]2CCc3ccc(-c4cn5c(n4)CCC5)cc32)c1` [Example B21, (R)-2-chloro-N-(6-(6,7-dihydro-5H-pyrrolo[1,2-a]imidazol-2-yl)-2,3-dihydro-1H-inden-1-yl)-5-methylnicotinamide], the affinity at WDR5 corresponds to a Ki of 0.0229 µM. Still for that read-out and setting: to `Cc1cc(C(=O)N[C@@H]2CCc3ccc(-c4cn5c(n4)CCC5)cc32)cc(=O)[nH]1` [Example B22, (R)—N-(6-(6,7-dihydro-5H-pyrrolo[1,2-a]imidazol-2-yl)-2,3-dihydro-1H-inden-1-yl)-6-methyl-2-oxo-1,2-dihydropyridine-4-carboxamide] belongs 0.426 µM; to `Cc1cc(Cl)nc(C(=O)N[C@@H]2CCc3ccc(-c4cn5c(n4)CCC5)cc32)c1` [Example B23, (R)-6-chloro-N-(6-(6,7-dihydro-5H-pyrrolo[1,2-a]imidazol-2-yl)-2,3-dihydro-1H-inden-1-yl)-4-methylpicolinamide], 0.769 µM; to `Cc1ccc(C(=O)N[C@@H]2CCc3ccc(-c4cn5c(n4)CCC5)cc32)cc1O` [Example B25, (R)—N-(6-(6,7-dihydro-5H-pyrrolo[1,2-a]imidazol-2-yl)-2,3-dihydro-1H-inden-1-yl)-3-hydroxy-4-methylbenzamide], 0.71 µM. In turn, `COc1cncc(C(=O)N[C@@H]2CCc3ccc(-c4cn5c(n4)CCC5)cc32)c1` [Example B26, (R)—N-(6-(6,7-dihydro-5H-pyrrolo[1,2-a]imidazol-2-yl)-2,3-dihydro-1H-inden-1-yl)-5-methoxynicotinamide] yielded a Ki at WDR5 of 0.0185 µM. The same measure, in the same setting: then `CC(=O)Nc1cc(C(=O)N[C@@H]2CCc3ccc(-c4cn5c(n4)CCC5)cc32)ccc1C` [Example B27, (R)-3-acetamido-N-(6-(6,7-dihydro-5H-pyrrolo[1,2-a]imidazol-2-yl)-2,3-dihydro-1H-inden-1-yl)-4-methylbenzamide], with 0.73 µM; and `Cc1ccc(C(=O)N[C@@H]2CCc3ccc(-c4cn5c(n4)CCC5)cc32)c(Cl)n1` [Example B28, (R)-2-chloro-N-(6-(6,7-dihydro-5H-pyrrolo[1,2-a]imidazol-2-yl)-2,3-dihydro-1H-inden-1-yl)-6-methylnicotinamide], with 0.169 µM. In test [1], `COc1cc(C(=O)N[C@@H]2CCc3ccc(-c4cn5c(n4)CCC5)cc32)cc(OC)c1C` [Example B29, (R)—N-(6-(6,7-dihydro-5H-pyrrolo[1,2-a]imidazol-2-yl)-2,3-dihydro-1H-inden-1-yl)-3,5-dimethoxy-4-methylbenzamide] registered a GI50 of 7.25 µM. With `O=C(N[C@@H]1CCc2ccc(-c3cn4c(n3)CCC4)cc21)c1ccncc1F` [Example B30, (R)—N-(6-(6,7-dihydro-5H-pyrrolo[1,2-a]imidazol-2-yl)-2,3-dihydro-1H-inden-1-yl)-3-fluoroisonicotinamide], the affinity at WDR5 corresponds to a Ki of 3.75 µM. The same measure, in the same setting: then `O=C(N[C@@H]1CCc2ccc(-c3cn4c(n3)CCC4)cc21)c1ccc(=O)[nH]c1` [Example B31, (R)—N-(6-(6,7-dihydro-5H-pyrrolo[1,2-a]imidazol-2-yl)-2,3-dihydro-1H-inden-1-yl)-6-oxo-1,6-dihydropyridine-3-carboxamide], with 0.835 µM; and `O=C(N[C@@H]1CCc2ccc(-c3cn4c(n3)CCC4)cc21)c1cncc(F)c1` [Example B32, (R)—N-(6-(6,7-dihydro-5H-pyrrolo[1,2-a]imidazol-2-yl)-2,3-dihydro-1H-inden-1-yl)-5-fluoronicotinamide], with 0.568 µM.

Take `COc1cc(C(=O)N[C@@H]2CCN(C(C)=O)c3ccc(-c4cn5c(n4)CCC5)cc32)ccc1C` [Example B33, (R)—N-(1-acetyl-6-(6,7-dihydro-5H-pyrrolo[1,2-a]imidazol-2-yl)-1,2,3,4-tetrahydroquinolin-4-yl)-3-methoxy-4-methylbenzamide]: the affinity on WDR5, expressed as Ki, was 0.0222 µM.
